Data set [1] deals with T1, hKv7.2/3 (Homo sapiens, UniProt O43525+O43526).
T1 construct: host or cells: CHO
The data set can be described thus: Kv7.2/7.3 HCS, FLIPR potassium (thallium) assay, CHO/hKv7.2/3. The data set is classed as cell-based. Put shortly: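 CHO cells stably expressing human Kv7.2/3, loaded with Tl+ indicator dye 1.5 h at room temperature in HBSS/HEPES with compound (0.2% DMSO). Channels activated by injection of 1 mM Tl2SO4 plus 5 mM K2SO4; fluorescence increase reflects Tl+ influx. EC50 from sigmoidal fit constrained to minimum 1, maximum ~3.6.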

For data set [2], the system named is rat DRG neurons. The data set can be described thus: Rat DRG neurons, capsaicin-evoked action potential firing. Type of data set: cell-based. To be noted: for IC50: capsaicin 1 μM, read-out: Rat DRGs, CAP IC50. An excerpt: rDRGs isolation and primary cell culture: Briefly, rat DRGs from all spinal levels were carefully removed and collected in HBSS on ices, connective tissue of the epineurium surrounding the ganglion was removed and cells were dissociated using Collagenase-II and trypsin dissociation solutions. DRGs were dissociated further, passed through glass Pasteur pipettes to obtain single cells. Then dissociation solution was changed to 5% FBS containing DRG neuronal culture medium and plated onto ECL coated 12 mm cover glass.
Additional rDRGs experiments were performed using Lonza primary neonatal rat (Sprague Dawley neonatal; P2,3) DRG neurons (R-DRG-505, Lonza) plated and cultured according to the manufacturer.
Electrophysiology: Cells were used for electrophysiological recording at least 48 hours following rDRG isolation or at least 5 days following cryopreserved rDRG thawing. Round small neurons (20-40 μm in diameter) were selected for electrophysiology recordings, to select for small nociceptive neurons that propagate pain sensation in vivo and that are expressing both Kv7.2/3 and TRPV1 targets. Membrane excitability was monitored using current clamp configuration of the whole-cell patch-clamp technique. Positive current steps of different amplitude were injected (400 ms) to induce spikes trains before and following compound application.
To assess the potency of compounds using DRG neurons, the inhibitory potency for CAP-evoked action potential (AP) trains was measured. For this purpose, DRG membrane potential was continuously measured, and the following protocol was performed:
Cells were perfused with vehicle containing bath solution. After 30 seconds, CAP (1 μM) was applied for 6 seconds to activate TRPV1 and stimulate AP trains.
After 30 seconds of perfusion with bath solution containing only vehicle, perfusion was changed to a bath solution containing compound, and after 3 minutes of compound application, CAP (1 μM) was applied again for 6 seconds to activate TRPV1 and stimulate AP trains.
Cells perfusion was changed back to bath solution containing only vehicle and after 3 minutes of compound washout, CAP (1 μM) was applied again for 6 seconds to activate TRPV1 and stimulate AP trains.
To evaluate the drug/control response, the number of AP spikes induced by CAP following incubation with test compound was divided by the average number of control AP spikes induced without compound, before compound incubation, and following its washout.

Data set [3] in a line: Log D, 1-octanol/buffer shake flask. To be noted: pH 7.4. The data set is classed as physicochemical. Put shortly: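 Compound from a 10 mM DMSO stock was partitioned between mutually saturated 1-octanol and 0.1 M phosphate buffer by shaking for 1 h at room temperature, then centrifuged. Each phase was diluted and quantified by LC/MS/MS. Log D came from the ratio of dilution- and internal-standard-corrected peak areas.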

Data set [4] can be described thus: Kinetic solubility. The data set is classed as physicochemical. To be noted: for solubility kinetic: hhbs buffer, aqueous buffer. Here is the method:
Solubility measurements were performed prior to each in vitro assay to ensure accurate dose response and reproducibility. Briefly, each compound was dissolved to 60 mM in DMSO and calibration curve was performed from 1.5-200 μM using absorbance spectra analysis and determination of λmax. Calibration curve served as the readout for all following assays. The 60 mM stock solution was used to make a 120 μM target concentration of 0.2% DMSO in the appropriate buffer of the in vitro related assay (i.e. HHBS buffer). Solubilized compounds were vortex for 10 minutes followed by centrifugation for 15 minutes in 5000 RPM and the supernatant was recovered for absorbance spectra analysis between 200-400 nm.

The mark [5] stands for this setting: Table 1, read-out: Kv7.2/7.3 IC50.
[6] abbreviates: 1-octanol/phosphate buffer, read-out: LogD.
The mark [7] stands for this setting: Table 1, read-out: Kinetic Sol.
The mark [8] stands for this setting: Tables 4 and 11, read-out: Kinetic Sol.

SMILES strings stand for the structures. In brackets after ≈: the same amount, converted by molar mass. Several values for one entry are separate records, joined by “and”; a condition that tells them apart may be missing. Equal values may be shown once. Read-outs that look alike come from different tables or passages of the source. Where only a bound is given, the exact number is not on record here.

T1 sequence (O43525 whole entry): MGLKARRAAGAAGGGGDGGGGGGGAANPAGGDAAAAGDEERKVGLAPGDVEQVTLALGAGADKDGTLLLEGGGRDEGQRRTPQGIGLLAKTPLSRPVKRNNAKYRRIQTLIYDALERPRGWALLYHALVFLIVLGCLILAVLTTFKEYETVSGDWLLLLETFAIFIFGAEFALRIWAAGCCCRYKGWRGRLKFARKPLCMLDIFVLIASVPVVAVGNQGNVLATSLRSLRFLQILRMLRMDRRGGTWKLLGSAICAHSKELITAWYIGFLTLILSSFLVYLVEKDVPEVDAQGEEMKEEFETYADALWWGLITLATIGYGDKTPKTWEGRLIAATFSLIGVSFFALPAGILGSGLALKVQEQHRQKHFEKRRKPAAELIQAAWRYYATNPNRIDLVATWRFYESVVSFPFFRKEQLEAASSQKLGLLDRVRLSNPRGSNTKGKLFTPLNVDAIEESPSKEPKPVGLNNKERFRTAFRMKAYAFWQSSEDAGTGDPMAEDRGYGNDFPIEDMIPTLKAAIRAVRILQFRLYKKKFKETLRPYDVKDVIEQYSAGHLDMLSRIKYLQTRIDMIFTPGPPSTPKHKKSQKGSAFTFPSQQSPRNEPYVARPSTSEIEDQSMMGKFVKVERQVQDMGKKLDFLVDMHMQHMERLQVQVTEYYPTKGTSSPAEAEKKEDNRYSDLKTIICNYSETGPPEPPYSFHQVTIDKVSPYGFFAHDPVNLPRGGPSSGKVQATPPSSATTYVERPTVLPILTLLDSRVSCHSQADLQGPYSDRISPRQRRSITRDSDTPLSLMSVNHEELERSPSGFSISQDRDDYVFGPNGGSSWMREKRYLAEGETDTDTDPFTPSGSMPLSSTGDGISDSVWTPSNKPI
T1 sequence (O43526 whole entry): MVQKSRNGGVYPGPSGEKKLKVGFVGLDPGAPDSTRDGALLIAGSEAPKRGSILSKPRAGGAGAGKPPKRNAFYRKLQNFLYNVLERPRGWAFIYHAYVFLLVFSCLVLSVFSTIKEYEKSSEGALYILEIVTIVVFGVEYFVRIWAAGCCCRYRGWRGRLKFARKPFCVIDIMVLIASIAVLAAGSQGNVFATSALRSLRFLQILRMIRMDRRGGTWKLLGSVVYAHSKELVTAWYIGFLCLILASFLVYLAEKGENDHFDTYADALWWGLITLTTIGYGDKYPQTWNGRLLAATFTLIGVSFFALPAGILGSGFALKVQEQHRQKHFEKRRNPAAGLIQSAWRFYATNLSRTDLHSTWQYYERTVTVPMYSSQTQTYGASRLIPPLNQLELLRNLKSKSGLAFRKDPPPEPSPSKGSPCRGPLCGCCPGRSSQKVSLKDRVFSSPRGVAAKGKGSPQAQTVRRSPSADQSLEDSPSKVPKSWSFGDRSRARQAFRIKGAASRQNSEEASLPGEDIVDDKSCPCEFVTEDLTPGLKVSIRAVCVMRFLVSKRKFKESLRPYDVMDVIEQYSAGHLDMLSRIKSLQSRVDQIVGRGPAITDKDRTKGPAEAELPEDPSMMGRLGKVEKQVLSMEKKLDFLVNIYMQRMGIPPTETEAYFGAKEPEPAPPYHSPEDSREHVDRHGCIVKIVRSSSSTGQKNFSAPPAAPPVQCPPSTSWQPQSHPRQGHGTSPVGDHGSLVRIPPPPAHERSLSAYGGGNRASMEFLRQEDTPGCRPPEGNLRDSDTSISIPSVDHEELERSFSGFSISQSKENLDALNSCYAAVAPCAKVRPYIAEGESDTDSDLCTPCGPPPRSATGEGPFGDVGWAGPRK

With `O=C(Cc1cc(-n2cc(Cl)c3cc(Cl)cc(Cl)c32)ccc1F)NCCO` [Compound 627], the “Kv7.2/3 activation (words)” value in data set [1] was “significant hKv7.2/3 activation even at picomolar concentrations”. The same molecule gave an activation at 0.01 µM in data set [1] (10 nM range) of around 30%. Also, the figures for the EC50 in data set [1] (setting [5]) and in data set [1] (read-out: Kv7.2/7.3 EC50) were 540 nM and 500 nM, respectively. The entries for the “Inhibition of capsaicin-evoked action potential firing” value in data set [2] (0.1 nM) and in data set [2] (1 nM) were “about 50%” and “completely blocked”, respectively. Further, the IC50 in data set [2] is 0.1 nM.
Consider `O=C(Cc1cc(-n2cc(C(F)(F)F)c3cc(Cl)cc(Cl)c32)ncn1)NCCO` [Compound 843], for which the logD in data set [3] (setting [6]) was 3.75.
On the same count and under the same terms, in the case of `O=C(Cc1ccnc(-n2cc(Cl)c3cc(Cl)cc(Cl)c32)n1)N[C@@H]1COC[C@H]1O` [Compound 820] it was 3.82.
Turning to `CC(C)c1cc(Cl)cc(Cl)c1Nc1ccc(F)c(CC(=O)NCC(C)(C)O)c1` [NH91, reference compound], the EC50 in data set [1] (read-out: Kv7.2/7.3 EC50) was 700 nM. Also, in data set [3] (setting [6]), the logD is 4.66. The solubility kinetic in data set [4] (Kinetic Sol., Tables 4 and 11) is 20 µM (≈ 8.55 µg/mL); in data set [4] (read-out: Kinetic solubility) it was 20 µM (≈ 8.55 µg/mL). Moreover, the IC50 in data set [2] came to 500 nM.
As to `CC(C)c1cc(Cl)cc(Cl)c1C(=O)c1ccc(F)c(CC(=O)NCC(C)(C)O)c1` [Compound 417-4], in data set [1] (setting [5]), the EC50 amounted to 13400 nM. Also, the logD in data set [3] (setting [6]) is 4.08. In addition, the solubility kinetic in data set [4] (setting [7]) is 66 µM (≈ 29.1 µg/mL).
In the case of `Cc1cn(-c2ccc(F)c(CC(=O)NCC(C)(C)O)c2)c2c(Cl)cc(Cl)cc12` [Compound 421-6], the values for the EC50 in data set [1] (setting [5]) and in data set [1] (read-out: Kv7.2/7.3 EC50) were 1100 nM and 2100 nM, respectively. The same molecule gave a logD in data set [3] of 5.47. The “Kinetic Sol.” value in data set [4] (Table 1) was 3.4. In addition, the “Inhibition of capsaicin induced AP response” value is 63.4±17.8% in data set [2] (100 nM) and 86.5±8.4% in data set [2] (500 nM). Besides, the “Inhibition of AP response to capsaicin” value in data set [2] (2 μM) worked out at 97.9±2.1%. Besides, in data set [2], the IC50 was below 100 nM.
On to `O=C(Cc1nccc(-n2cc(Cl)c3cc(Cl)cc(Cl)c32)n1)NC1COCC1O` (centres unmarked) [Compound 760], for which the logD in data set [3] (setting [6]) is 3.28. For the same molecule, the solubility kinetic in data set [4] (setting [8]) was 57000 µM (≈ 25200 µg/mL); in data set [4] (read-out: Kinetic solubility), 57 µM (≈ 25.2 µg/mL). The “Inhibition of capsaicin-evoked action potential firing” value in data set [2] (1 nM) is reported as “about 90%”. In addition, the IC50 in data set [2] is 0.23 nM.
Consider `Cc1cn(-c2ccc(F)c(CC(=O)NCC(C)(C)O)c2)c2c(Cl)cc(Cl)cc12` [Compound 421], for which the EC50 in data set [1] (read-out: hKv7.2/3 EC50 HCS) amounted to 824 nM. The logD in data set [3] (setting [6]) worked out at 5.45. Besides, in data set [4] (setting [8]), the solubility kinetic was determined as 3400 µM (≈ 1440 µg/mL). Moreover, the IC50 in data set [2] (listed as BS421) and in data set [2] was 25 nM each time.
In the case of `O=C(Cc1cncc(-n2cc(Cl)c3cc(Cl)cc(Cl)c32)c1)N[C@@H]1COC[C@H]1O` [Compound 661], the “Kv7.2/3 activation (words)” value in data set [1] is given as “partial yet potent facilitation of Kv7.2/3 activity”. The EC50 in data set [1] (setting [5]) came to 1100 nM; in data set [1] (read-out: hKv7.2/3 EC50 HCS) it was 0.001 nM. Also, in data set [1] (read-out: Kv7.2/3 maximal opening vs. control), the Emax came to 21%. The logD in data set [3] (setting [6]) turned out to be 3.55. Besides, the solubility kinetic was 40 µM (≈ 17.6 µg/mL) in data set [4] (setting [7]) and 37000 µM (≈ 16300 µg/mL) in data set [4] (setting [8]). For the same molecule, the IC50 was 0.002 nM in data set [2] (listed as BS661); 0.003 nM and 0.002 nM and < 0.003 nM in data set [2].
On to `COC[C@@H](CO)NC(=O)Cc1cc(Sc2c(Cl)cc(F)cc2C(C)C)ccc1F` [Compound 415], for which, in data set [1] (setting [5]), the EC50 came to 2200 nM. Besides, in data set [3] (setting [6]), the logD worked out at 4.25. Also, the solubility kinetic in data set [4] (setting [7]) was 26.7 µM (≈ 11.9 µg/mL).

For the origin of these results see patent US20260327211A1, “MODULATORS OF A POTASSIUM CHANNEL AND OF TRPV1 CHANNEL AND USES THEREOF” (Bsense Bio Therapeutics Ltd., priority 2023, published 2026).
